# Experimental data published in patent publication US7265107B2, “Rifamycin C-11 oxime cyclo derivatives effective against drug-resistant microbes” (Cumbre Pharmaceuticals Inc., priority 2004, dated 2007).
# Assays:
# Type in all cases: cell-based
# [1] = test system: Staphylococcus aureus EN1252a gvrA^S84L grlA^S80F; test: microbe, parasite or virus in culture; conditions: cipR, Cation-Adjusted Mueller-Hinton Broth, 37° C., read-out: Antimicrobial activity (MIC)
# Protocol: Representative compounds were assayed for antimicrobial activity as follows: Minimum Inhibitory Concentrations (“MICs”) were determined by the microbroth dilution method as per NCCLS guidelines (National Committee for Clinical Laboratory Standards. 2000. Methods for dilution antimicrobial susceptibility tests for bacteria that grow aerobically, 5th ed. M7-A5. National Committee for Clinical Laboratory Standards, Wayne, Pa.), except that all growth incubations were conducted at 37° C. Bacterial cultures were tested in the following bacteriological media: S. aureus, S. epidermidis, and E. coli in Cation-Adjusted Mueller-Hinton Broth, S. pneumoniae in THY Broth supplemented with 1 mg/mL catalase under 5% CO2 atmosphere, S. pyogenes in THY Broth, E. faecalis in BHI Broth, H. influenzae in BHI Broth supplemented with 0.75 μL of 1 mg/mL NAD and 150 μL of 1 mg/ml hematin per 5 mL, and M. smegmatis in Middlebrook Broth plus ADC Enrichment.
# S. aureus EN1252a gyrA^S84L grlA^S80F is a quinolone-resistant strain due to double mutations to the genes confer DNA gyrase and topoisomerase IV.
# [2] = test system: Streptococcus pneumoniae ATCC6303; conditions: rifS, THY Broth with 1 mg/mL catalase, 5% CO2, 37° C., read-out: Antimicrobial activity (MIC)
# [3] = test system: Enterococcus faecalis ATCC29212; conditions: rifS, BHI Broth, 37° C., read-out: Antimicrobial activity (MIC)
# [4] = test system: Haemophilus influenzae ATCC10211; conditions: rifS, BHI Broth with NAD and hematin, 37° C., read-out: Antimicrobial activity (MIC)
Compound,MIC [1],MIC [2],MIC [3],MIC [4]
"CO[C@H]1/C=C/O[C@@]2(C)Oc3c(C)c(O)c4c(c3/C2=N/O)C2=NC3(CCN(CC(C)C)CC3)NC2=C(NC(=O)/C(C)=C\C=C\[C@H](C)[C@H](O)[C@@H](C)[C@@H](O)[C@@H](C)[C@H](OC(C)=O)[C@@H]1C)C4=O [Example 4, 11-Deoxy-11-hydroxyimino-1′,4-didehydro-1-deoxy-1,4-dihydro-5′-(2-methylpropyl)-1-oxo-rifamycin XIV]",0.5 to 125 ng/mL,0.06 to 31 ng/mL,500 to 31200 ng/mL,125 to 8000 ng/mL
"CO[C@H]1/C=C/O[C@@]2(C)Oc3c(C)c(O)c4c(=O)c(c5oc6cc(N7CCN(CC(C)C)CC7)cc(O)c6nc-5c4c3/C2=N/O)NC(=O)/C(C)=C\C=C\[C@H](C)[C@H](O)[C@@H](C)[C@@H](O)[C@@H](C)[C@H](OC(C)=O)[C@@H]1C [Example 5, 11-Deoxy-11-hydroxyimino-1′,4-didehydro-1-deoxy-1,4-dihydro-3′-hydroxy-5′-[4-(2-methylpropyl)-1-piperazinyl]-1-oxo-rifamycin VIII]",0.5 to 125 ng/mL,0.06 to 31 ng/mL,500 to 31200 ng/mL,125 to 8000 ng/mL
"CO[C@H]1/C=C/O[C@@]2(C)Oc3c(C)c(O)c4c(=O)c(c5oc6cc(N7CCOCC7)cc(O)c6nc-5c4c3/C2=N/O)NC(=O)/C(C)=C\C=C\[C@H](C)[C@H](O)[C@@H](C)[C@@H](O)[C@@H](C)[C@H](OC(C)=O)[C@@H]1C [Example 6, 11-Deoxy-11-hydroxyimino-1′,4-didehydro-1-deoxy-1,4-dihydro-3′-hydroxy-5′-(morpholin-4-yl)-1-oxo-rifamycin VIII]",0.5 to 125 ng/mL,0.06 to 31 ng/mL,500 to 31200 ng/mL,125 to 8000 ng/mL
"CO[C@H]1/C=C/O[C@@]2(C)Oc3c(C)c(O)c4c(=O)c(c5oc6cc(N7CCN(C)CC7)cc(O)c6nc-5c4c3/C2=N/O)NC(=O)/C(C)=C\C=C\[C@H](C)[C@H](O)[C@@H](C)[C@@H](O)[C@@H](C)[C@H](OC(C)=O)[C@@H]1C [Example 7, 11-Deoxy-11-hydroxyimino-1′,4-didehydro-1-deoxy-1,4-dihydro-3′-hydroxy-5′-(4-methyl-i-piperazinyl)-1-oxo-rifamycin VIII]",0.5 to 125 ng/mL,0.06 to 31 ng/mL,500 to 31200 ng/mL,125 to 8000 ng/mL
"CCN1CCN(c2cc(O)c3nc4c5c6c7c(C)c(O)c5c(=O)c(c-4oc3c2)NC(=O)/C(C)=C\C=C\[C@H](C)[C@H](O)[C@@H](C)[C@@H](O)[C@@H](C)[C@H](OC(C)=O)[C@H](C)[C@@H](OC)/C=C/O[C@@](C)(O7)/C6=N\O)CC1 [Example 8, 11-Deoxy-11-hydroxyimino-1′,4-didehydro-1-deoxy-1,4-dihydro-3′-hydroxy-5′-(4-ethyl-1-piperazinyl)-1-oxo-rifamycin VIII]",0.5 to 125 ng/mL,0.06 to 31 ng/mL,500 to 31200 ng/mL,125 to 8000 ng/mL
"CO[C@H]1/C=C/O[C@@]2(C)Oc3c(C)c(O)c4c(=O)c(c5oc6cc(N7CCN(C(C)C)CC7)cc(O)c6nc-5c4c3/C2=N/O)NC(=O)/C(C)=C\C=C\[C@H](C)[C@H](O)[C@@H](C)[C@@H](O)[C@@H](C)[C@H](OC(C)=O)[C@@H]1C [Example 9, 11-Deoxy-11-hydroxyimino-1′,4-didehydro-1-deoxy-1,4-dihydro-3′-hydroxy-5′-(4-isopropyl-1-piperazinyl)-1-oxo-rifamycin VIII]",0.5 to 125 ng/mL,0.06 to 31 ng/mL,500 to 31200 ng/mL,125 to 8000 ng/mL
"CCCCN1CCN(c2cc(O)c3nc4c5c6c7c(C)c(O)c5c(=O)c(c-4oc3c2)NC(=O)/C(C)=C\C=C\[C@H](C)[C@H](O)[C@@H](C)[C@@H](O)[C@@H](C)[C@H](OC(C)=O)[C@H](C)[C@@H](OC)/C=C/O[C@@](C)(O7)/C6=N\O)CC1 [Example 10, 11-Deoxy-11-hydroxyimino-1′,4-didehydro-1-deoxy-1,4-dihydro-3′-hydroxy-5′-(4-butyl-1-piperazinyl)-1-oxo-rifamycin VIII]",0.5 to 125 ng/mL,0.06 to 31 ng/mL,500 to 31200 ng/mL,125 to 8000 ng/mL
"CO[C@H]1/C=C/O[C@@]2(C)Oc3c(C)c(O)c4c(=O)c(c5oc6cc(N7CCN(CC8CCCCC8)CC7)cc(O)c6nc-5c4c3/C2=N/O)NC(=O)/C(C)=C\C=C\[C@H](C)[C@H](O)[C@@H](C)[C@@H](O)[C@@H](C)[C@H](OC(C)=O)[C@@H]1C [Example 11, 11-Deoxy-11-hydroxyimino-1′,4-didehydro-1-deoxy-1,4-dihydro-3′-hydroxy-5′-(4-cyclohexylmethyl-1-piperazinyl)-1-oxo-rifamycin VIII]",0.5 to 125 ng/mL,0.06 to 31 ng/mL,500 to 31200 ng/mL,125 to 8000 ng/mL
"CO[C@H]1/C=C/O[C@@]2(C)Oc3c(C)c(O)c4c(=O)c(c5oc6cc(N7CCN(CC8CCN(C)CC8)CC7)cc(O)c6nc-5c4c3/C2=N/O)NC(=O)/C(C)=C\C=C\[C@H](C)[C@H](O)[C@@H](C)[C@@H](O)[C@@H](C)[C@H](OC(C)=O)[C@@H]1C [Example 12, 11-Deoxy-11-hydroxyimino-1′,4-didehydro-1-deoxy-1,4-dihydro-3′-hydroxy-5 V-[4-(1-Methyl-piperidin-4-ylmethyl)-1-piperazinyl]-1-oxo-rifamycin VII]",0.5 to 125 ng/mL,0.06 to 31 ng/mL,500 to 31200 ng/mL,125 to 8000 ng/mL
"CO[C@H]1/C=C/O[C@@]2(C)Oc3c(C)c(O)c4c(=O)c(c5oc6cc(N7CCC(N8CCCCC8)CC7)cc(O)c6nc-5c4c3/C2=N/O)NC(=O)/C(C)=C\C=C\[C@H](C)[C@H](O)[C@@H](C)[C@@H](O)[C@@H](C)[C@H](OC(C)=O)[C@@H]1C [Example 13, 11-Deoxy-11-hydroxyimino-1′,4-didehydro-1-deoxy-1,4-dihydro-3′-hydroxy-5′-[(1,4′)-bipiperidinyl-1′-yl]-1-oxo-rifamycin VIII]",0.5 to 125 ng/mL,0.06 to 31 ng/mL,500 to 31200 ng/mL,125 to 8000 ng/mL
"CO[C@H]1/C=C/O[C@@]2(C)Oc3c(C)c(O)c4c(=O)c(c5oc6cc(N7CC(C)NC(C)C7)cc(O)c6nc-5c4c3/C2=N/O)NC(=O)/C(C)=C\C=C\[C@H](C)[C@H](O)[C@@H](C)[C@@H](O)[C@@H](C)[C@H](OC(C)=O)[C@@H]1C (stereo partly shown) [Example 14, 11-Deoxy-11-hydroxyimino-1′,4-didehydro-1-deoxy-1,4-dihydro-3′-hydroxy-5′-(3,5-dimethyl-1-piperazinyl)-1-oxo-rifamycin VIII]",0.5 to 125 ng/mL,0.06 to 31 ng/mL,500 to 31200 ng/mL,125 to 8000 ng/mL
"CO[C@H]1/C=C/O[C@@]2(C)Oc3c(C)c(O)c4c(=O)c(c5oc6cc(N7CC[C@@H](N)C7)cc(O)c6nc-5c4c3/C2=N/O)NC(=O)/C(C)=C\C=C\[C@H](C)[C@H](O)[C@@H](C)[C@@H](O)[C@@H](C)[C@H](OC(C)=O)[C@@H]1C [Example 15, 11-Deoxy-11-hydroxyimino-1′,4-didehydro-1-deoxy-1,4-dihydro-3′-hydroxy-5′-(3-amino-pyrrolidin-1-yl)-1-oxo-rifamycin VIII]",0.5 to 125 ng/mL,0.06 to 31 ng/mL,500 to 31200 ng/mL,125 to 8000 ng/mL
"CO[C@H]1/C=C/O[C@@]2(C)Oc3c(C)c(O)c4c(=O)c(c5oc6cc(N7CCCC7)cc(O)c6nc-5c4c3/C2=N/O)NC(=O)/C(C)=C\C=C\[C@H](C)[C@H](O)[C@@H](C)[C@@H](O)[C@@H](C)[C@H](OC(C)=O)[C@@H]1C [Example 16, 11-Deoxy-11-hydroxyimino-1′,4-didehydro-1-deoxy-1,4-dihydro-3′-hydroxy-5′-(pyrrolidin-1-yl)-1-oxo-rifamycin VIII]",0.5 to 125 ng/mL,0.06 to 31 ng/mL,500 to 31200 ng/mL,125 to 8000 ng/mL
"CO[C@H]1/C=C/O[C@@]2(C)Oc3c(C)c(O)c4c(=O)c(c5oc6cc(N7CCN(CCOCCO)CC7)cc(O)c6nc-5c4c3/C2=N/O)NC(=O)/C(C)=C\C=C\[C@H](C)[C@H](O)[C@@H](C)[C@@H](O)[C@@H](C)[C@H](OC(C)=O)[C@@H]1C [Example 17, 11-Deoxy-11-hydroxyimino-1′,4-didehydro-1-deoxy-1,4-dihydro-3′-hydroxy-5′-{4-[2-(2-hydroxy-ethoxy)-ethyl]-piperazin-1-yl}-1-oxo-rifamycin VIII]",0.5 to 125 ng/mL,0.06 to 31 ng/mL,500 to 31200 ng/mL,125 to 8000 ng/mL
"CO[C@H]1/C=C/O[C@@]2(C)Oc3c(C)c(O)c4c(=O)c(c5oc6cc(N(CCO)CCO)cc(O)c6nc-5c4c3/C2=N/O)NC(=O)/C(C)=C\C=C\[C@H](C)[C@H](O)[C@@H](C)[C@@H](O)[C@@H](C)[C@H](OC(C)=O)[C@@H]1C [Example 18, 11-Deoxy-11-hydroxyimino-1′,4-didehydro-1-deoxy-1,4-dihydro-3′-hydroxy-5′-[bis-(2-hydroxy-ethyl)-amino]-1-oxo-rifamycin VIII]",0.5 to 125 ng/mL,0.06 to 31 ng/mL,500 to 31200 ng/mL,125 to 8000 ng/mL
"CO[C@H]1/C=C/O[C@@]2(C)Oc3c(C)c(O)c4c(=O)c(c5oc6cc(N7CCN(C)CC7)cc(C)c6nc-5c4c3/C2=N/O)NC(=O)/C(C)=C\C=C\[C@H](C)[C@H](O)[C@@H](C)[C@@H](O)[C@@H](C)[C@H](OC(C)=O)[C@@H]1C [Example 19, 11-Deoxy-11-hydroxyimino-1′,4-didehydro-1-deoxy-1,4-dihydro-3′-methyl-5′-(4-methyl-1-piperazinyl)-1-oxo-rifamycin VIII]",0.5 to 125 ng/mL,0.06 to 31 ng/mL,500 to 31200 ng/mL,125 to 8000 ng/mL
